Experimental data reported in patent US11945836B2, “Compositions and methods for treating CNS disorders” (Sage Therapeutics, Inc., priority 2014, dated 2024).

The compounds below were run against rat brain cortical membranes ([35S]-TBPS binding) (assay: Steroid inhibition of [35S]-TBPS binding (radioligand displacement)). Details: 3 nM [35S]-TBPS, in the presence of 5 μM GABA.
Method: Steroid Inhibition of TBPS Binding
TBPS binding assays using rat brain cortical membranes in the presence of 5 μM GABA has been described (Gee et al, J. Pharmacol. Exp. Ther. 1987, 241, 346-353; Hawkinson et al, Mol. Pharmacol. 1994, 46, 977-985; Lewin, A. H et al., Mol. Pharmacol. 1989, 35, 189-194).
Briefly, cortices are rapidly removed following decapitation of carbon dioxide-anesthetized Sprague-Dawley rats (200-250 g). The cortices are homogenized in 10 volumes of ice-cold 0.32 M sucrose using a glass/teflon homogenizer and centrifuged at 1500×g for 10 min at 4° C. The resultant supernatants are centrifuged at 10,000×g for 20 min at 4° C. to obtain the P2 pellets. The P2 pellets are resuspended in 200 mM NaCl/50 mM Na—K phosphate pH 7.4 buffer and centrifuged at 10,000×g for 10 min at 4° C. This washing procedure is repeated twice and the pellets are resuspended in 10 volumes of buffer. Aliquots (100 uL) of the membrane suspensions are incubated with 3 nM [^35S]-TBPS and 5 μL aliquots of test drug dissolved in dimethyl sulfoxide (DMSO) (final 0.5%) in the presence of 5 μM GABA. The incubation is brought to a final volume of 1.0 mL with buffer. […] Following a 90 min incubation at room temp, the assays are terminated by filtration through glass fiber filters (Schleicher and Schuell No. 32) using a cell harvester (Brandel) and rinsed three times with ice-cold buffer. Filter bound radioactivity is measured by liquid scintillation spectrometry. Non-linear curve fitting of the overall data for each drug averaged for each concentration is done using Prism (GraphPad). […] The concentration of test compound producing 50% inhibition (IC50) of specific binding and the maximal extent of inhibition (Imax) are determined for the individual experiments with the same model used for the overall data and then the means±SEMs of the individual experiments are calculated.
Various compounds are or can be screened to determine their potential as modulators of [^35S]-TBPS binding in vitro. These assays are or can be performed in accordance with the above discussed procedures.

First: Cc1ccc(C(=O)[C@H]2CC[C@H]3[C@@H]4CC[C@@H]5C[C@](C)(O)CC[C@]5(C)[C@H]4CC[C@]23C)cc1F [Compound 27]
Second: Cc1ccc(C(=O)[C@H]2CC[C@H]3[C@@H]4CC[C@H]5C[C@](C)(O)CC[C@]5(C)[C@H]4CC[C@]23C)cc1F [Compound 45]
The IC50 of the first is lower: 20 to 50 nM for the first, > 100 nM for the second.

Compared with `C[C@@]1(O)CC[C@@]2(C)[C@H](CC[C@@H]3[C@@H]2CC[C@]2(C)[C@@H](C(=O)c4ccccc4)CC[C@@H]32)C1` [Compound 28], `Cc1cccc(C(=O)[C@H]2CC[C@H]3[C@@H]4CC[C@@H]5C[C@](C)(O)CC[C@]5(C)[C@H]4CC[C@]23C)c1` [Compound 73] is higher in IC50: 20 to 50 nM for the first, 50 to 100 nM for the second. The first is the more potent here.

`CN(C)c1ccc(C(=O)[C@H]2CC[C@H]3[C@@H]4CC[C@@H]5C[C@](C)(O)CC[C@@H]5[C@H]4CC[C@]23C)cc1` [Compound 32] and `Cc1ccc(C(=O)[C@H]2CC[C@H]3[C@@H]4CC[C@@H]5C[C@](C)(O)CC[C@@H]5[C@H]4CC[C@]23C)cc1` [Compound 86] fall in the same range of IC50: 20 to 50 nM for the first, 20 to 50 nM for the second.

`COc1ccc(C(=O)[C@H]2CC[C@H]3[C@@H]4CC[C@@H]5C[C@](C)(O)CC[C@]5(C)[C@H]4CC[C@]23C)c(C)c1` [Compound 33] and `COc1ccc(C(=O)[C@H]2CC[C@H]3[C@@H]4CC[C@@H]5C[C@](C)(O)CC[C@]5(C)[C@H]4CC[C@]23C)cc1` [Compound 61] cannot be ordered by IC50: > 100 nM for the first, > 100 nM for the second.

First: C[C@@]1(O)CC[C@H]2[C@H](CC[C@@H]3[C@@H]2CC[C@]2(C)[C@@H](C(=O)c4ccc(OC(F)(F)F)cc4)CC[C@@H]32)C1 [Compound 34]
Second: C[C@@]1(O)CC[C@H]2[C@H](CC[C@@H]3[C@@H]2CC[C@]2(C)[C@@H](C(=O)c4ccc(F)cc4)CC[C@@H]32)C1 [Compound 55]
The IC50 of the first is lower: < 20 nM for the first, 20 to 50 nM for the second.

First: C[C@@]1(O)CC[C@H]2[C@H](CC[C@@H]3[C@@H]2CC[C@]2(C)[C@@H](C(=O)c4ccc5c(c4)OCO5)CC[C@@H]32)C1 [Compound 35]
Second: Cc1ccc(C(=O)[C@H]2CC[C@H]3[C@@H]4CC[C@@H]5C[C@](C)(O)CC[C@@H]5[C@H]4CC[C@]23C)cc1F [Compound 41]
The IC50 of the first is lower: < 20 nM for the first, 20 to 50 nM for the second. The first is the more potent here.

First: C[C@@]1(O)CC[C@@]2(C)[C@@H](CC[C@@H]3[C@@H]2CC[C@]2(C)[C@@H](C(=O)c4cc(F)cc(F)c4)CC[C@@H]32)C1 [Compound 37]
Second: C[C@@]1(O)CC[C@@]2(C)[C@H](CC[C@@H]3[C@@H]2CC[C@]2(C)[C@@H](C(=O)c4cccc(F)c4)CC[C@@H]32)C1 [Compound 83]
The IC50 of the first is higher: 50 to 100 nM for the first, 20 to 50 nM for the second. The second is the more potent here.

`Cc1cc(C(=O)[C@H]2CC[C@H]3[C@@H]4CC[C@H]5C[C@](C)(O)CC[C@]5(C)[C@H]4CC[C@]23C)ccc1F` [Compound 38] and `Cc1ccc(C(=O)[C@H]2CC[C@H]3[C@@H]4CC[C@H]5C[C@](C)(O)CC[C@]5(C)[C@H]4CC[C@]23C)cc1C` [Compound 39] fall in the same range of IC50: 50 to 100 nM for the first, 50 to 100 nM for the second.

First: CN(C)c1ccc(C(=O)[C@H]2CC[C@H]3[C@@H]4CC[C@@H]5C[C@](C)(O)CC[C@]5(C)[C@H]4CC[C@]23C)cc1 [Compound 40]
Second: Cc1ccc(C(=O)[C@H]2CC[C@H]3[C@@H]4CC[C@H]5C[C@](C)(O)CC[C@]5(C)[C@H]4CC[C@]23C)cc1 [Compound 75]
The IC50 of the first is lower: 20 to 50 nM for the first, > 100 nM for the second.

First: CCc1ccc(C(=O)[C@H]2CC[C@H]3[C@@H]4CC[C@@H]5C[C@](C)(O)CC[C@@H]5[C@H]4CC[C@]23C)cc1 [Compound 42]
Second: C[C@@]1(O)CC[C@H]2[C@H](CC[C@@H]3[C@@H]2CC[C@]2(C)[C@@H](C(=O)c4ccc(Cl)cc4)CC[C@@H]32)C1 [Compound 52]
The IC50 of the first is lower: < 20 nM for the first, 20 to 50 nM for the second.

First: COc1ccc(C(=O)[C@H]2CC[C@H]3[C@@H]4CC[C@@H]5C[C@](C)(O)CC[C@@H]5[C@H]4CC[C@]23C)c(C)c1 [Compound 43]
Second: COc1cccc(C(=O)[C@H]2CC[C@H]3[C@@H]4CC[C@H]5C[C@](C)(O)CC[C@@H]5[C@H]4CC[C@]23C)c1 [Compound 71]
The IC50 of the first is lower: 20 to 50 nM for the first, > 100 nM for the second.

`C[C@@]1(O)CC[C@H]2[C@H](CC[C@@H]3[C@@H]2CC[C@]2(C)[C@@H](C(=O)c4ccc(-c5ccccc5)cc4)CC[C@@H]32)C1` [Compound 44] and `C[C@@]1(O)CC[C@H]2[C@@H](CC[C@@H]3[C@@H]2CC[C@]2(C)[C@@H](C(=O)c4ccc(-c5ccccc5)cc4)CC[C@@H]32)C1` [Compound 58] fall in the same range of IC50: 50 to 100 nM for the first, 50 to 100 nM for the second.

`Cc1ccsc1C(=O)[C@H]1CC[C@H]2[C@@H]3CC[C@@H]4C[C@](C)(O)CC[C@@H]4[C@H]3CC[C@]12C` [Compound 46] and `Cc1ccccc1C(=O)[C@H]1CC[C@H]2[C@@H]3CC[C@@H]4C[C@](C)(O)CC[C@@H]4[C@H]3CC[C@]12C` [Compound 64] cannot be ordered by IC50: > 100 nM for the first, > 100 nM for the second.

First: C[C@@]1(O)CC[C@@]2(C)[C@H](CC[C@@H]3[C@@H]2CC[C@]2(C)[C@@H](C(=O)c4ccc(OC(F)(F)F)cc4)CC[C@@H]32)C1 [Compound 47]
Second: COc1ccc(C(=O)[C@H]2CC[C@H]3[C@@H]4CC[C@H]5C[C@](C)(O)CC[C@]5(C)[C@H]4CC[C@]23C)cc1 [Compound 76]
The IC50 of the first is lower: 20 to 50 nM for the first, > 100 nM for the second. The first is the more potent here.

Compared with `CSc1ccc(C(=O)[C@H]2CC[C@H]3[C@@H]4CC[C@@H]5C[C@](C)(O)CC[C@]5(C)[C@H]4CC[C@]23C)cc1` [Compound 48], `C[C@@]1(O)CC[C@@]2(C)[C@H](CC[C@@H]3[C@@H]2CC[C@]2(C)[C@@H](C(=O)c4ccc(F)cc4)CC[C@@H]32)C1` [Compound 54] is higher in IC50: 20 to 50 nM for the first, 50 to 100 nM for the second.

First: CCc1ccc(C(=O)[C@H]2CC[C@H]3[C@@H]4CC[C@@H]5C[C@](C)(O)CC[C@]5(C)[C@H]4CC[C@]23C)cc1 [Compound 49]
Second: C[C@@]1(O)CC[C@@]2(C)[C@H](CC[C@@H]3[C@@H]2CC[C@]2(C)[C@@H](C(=O)c4ccc(Cl)cc4)CC[C@@H]32)C1 [Compound 51]
The IC50 of the first is lower: < 20 nM for the first, 50 to 100 nM for the second.

First: COc1ccccc1C(=O)[C@H]1CC[C@H]2[C@@H]3CC[C@@H]4C[C@](C)(O)CC[C@@H]4[C@H]3CC[C@]12C [Compound 50]
Second: Cc1cccc(C(=O)[C@H]2CC[C@H]3[C@@H]4CC[C@@H]5C[C@](C)(O)CC[C@@H]5[C@H]4CC[C@]23C)c1 [Compound 74]
The IC50 of the first is higher: > 100 nM for the first, 20 to 50 nM for the second. The second is the more potent here.

`COc1ccccc1C(=O)[C@H]1CC[C@H]2[C@@H]3CC[C@@H]4C[C@](C)(O)CC[C@]4(C)[C@H]3CC[C@]12C` [Compound 53] and `COc1ccccc1C(=O)[C@H]1CC[C@H]2[C@@H]3CC[C@H]4C[C@](C)(O)CC[C@]4(C)[C@H]3CC[C@]12C` [Compound 78] cannot be ordered by IC50: > 100 nM for the first, > 100 nM for the second.

First: C[C@@]1(O)CC[C@H]2[C@H](CC[C@@H]3[C@@H]2CC[C@]2(C)[C@@H](C(=O)c4cccc(F)c4)CC[C@@H]32)C1 [Compound 56]
Second: C[C@@]1(O)CC[C@H]2[C@H](CC[C@@H]3[C@@H]2CC[C@]2(C)[C@@H](C(=O)c4cccnc4)CC[C@@H]32)C1 [Compound 70]
The IC50 of the first is lower: 20 to 50 nM for the first, 50 to 100 nM for the second. The first is the more potent here.

First: C[C@@]1(O)CC[C@H]2[C@@H](CC[C@@H]3[C@@H]2CC[C@]2(C)[C@@H](C(=O)c4ccc5ccccc5c4)CC[C@@H]32)C1 [Compound 59]
Second: COc1ccc2cc(C(=O)[C@H]3CC[C@H]4[C@@H]5CC[C@@H]6C[C@](C)(O)CC[C@@H]6[C@H]5CC[C@]34C)ccc2c1 [Compound 72]
The IC50 of the first is higher: 50 to 100 nM for the first, 20 to 50 nM for the second. The second is the more potent here.

`C[C@@]1(O)CC[C@H]2[C@H](CC[C@@H]3[C@@H]2CC[C@]2(C)[C@@H](C(=O)c4ccccn4)CC[C@@H]32)C1` [Compound 60] and `C[C@@]1(O)CC[C@@]2(C)[C@H](CC[C@@H]3[C@@H]2CC[C@]2(C)[C@@H](C(=O)c4ccccn4)CC[C@@H]32)C1` [Compound 62] cannot be ordered by IC50: > 100 nM for the first, > 100 nM for the second.

Compared with `COc1cccc(C(=O)[C@H]2CC[C@H]3[C@@H]4CC[C@@H]5C[C@](C)(O)CC[C@]5(C)[C@H]4CC[C@]23C)c1` [Compound 63], `COc1cccc(C(=O)[C@H]2CC[C@H]3[C@@H]4CC[C@H]5C[C@](C)(O)CC[C@]5(C)[C@H]4CC[C@]23C)c1` [Compound 77] is higher in IC50: 50 to 100 nM for the first, > 100 nM for the second. The first is the more potent here.

`C[C@@]1(O)CC[C@@]2(C)[C@@H](CC[C@@H]3[C@@H]2CC[C@]2(C)[C@@H](C(=O)c4ccc(F)cc4)CC[C@@H]32)C1` [Compound 79] and `C[C@@]1(O)CC[C@@]2(C)[C@@H](CC[C@@H]3[C@@H]2CC[C@]2(C)[C@@H](C(=O)c4ccc(Cl)cc4)CC[C@@H]32)C1` [Compound 81] cannot be ordered by IC50: > 100 nM for the first, > 100 nM for the second.

`C[C@@]1(O)CC[C@@]2(C)[C@@H](CC[C@@H]3[C@@H]2CC[C@]2(C)[C@@H](C(=O)c4ccccc4F)CC[C@@H]32)C1` [Compound 80] and `C[C@@]1(O)CC[C@@]2(C)[C@H](CC[C@@H]3[C@@H]2CC[C@]2(C)[C@@H](C(=O)c4ccccc4F)CC[C@@H]32)C1` [Compound 84] cannot be ordered by IC50: > 100 nM for the first, > 100 nM for the second.

`Cc1cccc(C(=O)[C@H]2CC[C@H]3[C@@H]4CC[C@H]5C[C@](C)(O)CC[C@]5(C)[C@H]4CC[C@]23C)c1` [Compound 82] and `COc1ccc2cc(C(=O)[C@H]3CC[C@H]4[C@@H]5CC[C@@H]6C[C@](C)(O)CC[C@]6(C)[C@H]5CC[C@]34C)ccc2c1` [Compound 85] cannot be ordered by IC50: > 100 nM for the first, > 100 nM for the second.
